Test results taken from patent US20190255086A1, “Compositions and Methods for Treating an Infection” (CMPD Licensing, LLC, priority 2015, published 2019).

Legend:
Neisseria meningitidis = test: Expected efficacy of anti-bacterial agents against various bacteria (Tables 5 and 6); details: Gram: neg
Francisella tularensis = details: expected efficacy; Francisella tularensis; Gram: neg
Morganella morganii = test: Expected efficacy of anti-bacterial agents against various bacteria (Tables 5 and 6); details: Gram: neg
Moraxella catarrhalis = test: as above; details: Gram: neg
Diphtheroids = test: as above; details: Gram: pos
Peptostreptococcus = test: as above; details: Gram: pos
[1] = test system: Methicillin resistant staph aureus (MRSA); test: as above; details: Gram: pos
Corynebacterium jeikeium = test: as above; details: Gram: pos
Streptococcus pneumoniae = test: as above; details: Gram: pos
Escherichia coli = test: as above; details: Gram: neg
Salmonella typhi = test: as above; details: Gram: neg
Haemophilus influenzae = test: as above; details: Gram: neg
Serratia marcescens = test: as above; details: Gram: neg
Pseudomonas aeruginosa = test: as above; details: Gram: neg
Shigella flexneri = test: as above; details: Gram: neg
Acinetobacter lwoffii = test: as above; details: Gram: neg
Rickettsiae = details: expected efficacy; Rickettsiae; Gram: neg
Chlamydia trachomatis = test: Expected efficacy of anti-bacterial agents against various bacteria (Tables 5 and 6); details: Gram: n/a
Acinetobacter baumannii = test: as above; details: Gram: neg
Providencia rettgeri = test: as above; details: Gram: neg
Neisseria gonorrhoeae = test: as above; details: Gram: neg
Enterobacter sakazakii = test: as above; details: Gram: neg
Chlamydia psittaci = details: expected efficacy; Chlamydia psittaci; Gram: n/a
Haemophilus ducreyi = test: Expected efficacy of anti-bacterial agents against various bacteria (Tables 5 and 6); details: Gram: neg
Shigella dysenteriae = test: as above; details: Gram: neg
Citrobacter freundii = test: as above; details: Gram: neg
Mycoplasma pneumoniae = test: as above; details: Gram: n/a
[2] = test system: Staphylococcus aureus (MSSA); test: as above; details: Gram: pos
Clostridium difficile = test: as above; details: Gram: anaer
[3] = test system: Corynebacterium urealyticum; test: as above; details: Gram: pos
Vibrio cholerae = test: as above; details: Gram: neg
Chlamydia pneumoniae = test: as above; details: Gram: n/a
Enterobacter cloacae = test: as above; details: Gram: neg
Citrobacter diversus = test: as above; details: Gram: neg
Clostridium perfringens = details: expected efficacy; Clostridium perfringens; Gram: anaer
[4] = test system: Haemophilus parainfluenzae; test: Expected efficacy of anti-bacterial agents against various bacteria (Tables 5 and 6); details: Gram: neg
Bordetella pertussis = test: as above; details: Gram: neg
Yersinia pestis = details: expected efficacy; Yersinia pestis; Gram: neg
Klebsiella pneumoniae = test: Expected efficacy of anti-bacterial agents against various bacteria (Tables 5 and 6); details: Gram: neg
Klebsiella oxytoca = test: as above; details: Gram: neg
Enterococcus faecalis = test: as above; details: Gram: pos
Bacteroides fragilis = test: as above; details: Gram: anaer
[5] = test system: Viridans group streptococci; test: as above; details: Gram: pos
Streptococcus agalactiae = test: as above; details: Gram: pos
[6] = test system: Klebsiella (Calymmatobacterium) granulomatis; test: as above; details: Gram: neg
Shigella sonnei = test: as above; details: Gram: neg
Proteus vulgaris = test: as above; details: Gram: neg
Proteus mirabilis = test: as above; details: Gram: neg
Enterococcus faecium = test: as above; details: Gram: pos
Campylobacter jejuni = test: as above; details: Gram: neg
Streptococcus pyogenes = test: as above; details: Gram: pos
Legionella pneumophila = details: expected efficacy; Legionella pneumophila; Gram: neg
Enterobacter aerogenes = test: Expected efficacy of anti-bacterial agents against various bacteria (Tables 5 and 6); details: Gram: neg
Providencia stuartii = test: as above; details: Gram: neg
Shigella boydii = test: as above; details: Gram: neg
[7] = test system: Acinetobacter calcoaceticus; test: as above; details: Gram: neg
[8] = test system: Staphylococcus epidermidis; test: as above; details: Gram: pos

CO/N=C(\C(=O)N[C@@H]1C(=O)N2C(C(=O)O)=C(CSc3nc(=O)c(=O)[nH]n3C)CS[C@H]12)c1csc(N)n1 [Ceftriaxone]
Efficacy of various antibiotic agents (Neisseria meningitidis): yes
Efficacy of various antibiotic agents (Francisella tularensis): no
Efficacy of various antibiotic agents (Morganella morganii): yes
Efficacy of various antibiotic agents (Moraxella catarrhalis): yes
Efficacy of various antibiotic agents (Diphtheroids): no
Efficacy of various antibiotic agents (Peptostreptococcus): yes
Efficacy of various antibiotic agents [1]: no
Efficacy of various antibiotic agents (Corynebacterium jeikeium): no
Efficacy of various antibiotic agents (Streptococcus pneumoniae): yes
Efficacy of various antibiotic agents (Escherichia coli): yes
Efficacy of various antibiotic agents (Salmonella typhi): yes
Efficacy of various antibiotic agents (Haemophilus influenzae): yes
Efficacy of various antibiotic agents (Serratia marcescens): yes
Efficacy of various antibiotic agents (Pseudomonas aeruginosa): no
Efficacy of various antibiotic agents (Shigella flexneri): yes
Efficacy of various antibiotic agents (Acinetobacter lwoffii): no
Efficacy of various antibiotic agents (Rickettsiae): no
Efficacy of various antibiotic agents (Chlamydia trachomatis): no
Efficacy of various antibiotic agents (Acinetobacter baumannii): no
Efficacy of various antibiotic agents (Providencia rettgeri): yes
Efficacy of various antibiotic agents (Neisseria gonorrhoeae): yes
Efficacy of various antibiotic agents (Enterobacter sakazakii): yes
Efficacy of various antibiotic agents (Chlamydia psittaci): no
Efficacy of various antibiotic agents (Haemophilus ducreyi): yes
Efficacy of various antibiotic agents (Shigella dysenteriae): yes
Efficacy of various antibiotic agents (Citrobacter freundii): yes
Efficacy of various antibiotic agents (Mycoplasma pneumoniae): no
Efficacy of various antibiotic agents [2]: yes
Efficacy of various antibiotic agents (Clostridium difficile): no
Efficacy of various antibiotic agents [3]: no
Efficacy of various antibiotic agents (Vibrio cholerae): no
Efficacy of various antibiotic agents (Chlamydia pneumoniae): no
Efficacy of various antibiotic agents (Enterobacter cloacae): yes
Efficacy of various antibiotic agents (Citrobacter diversus): yes
Efficacy of various antibiotic agents (Clostridium perfringens): yes
Efficacy of various antibiotic agents [4]: yes
Efficacy of various antibiotic agents (Bordetella pertussis): no
Efficacy of various antibiotic agents (Yersinia pestis): no
Efficacy of various antibiotic agents (Klebsiella pneumoniae): yes
Efficacy of various antibiotic agents (Klebsiella oxytoca): yes
Efficacy of various antibiotic agents (Enterococcus faecalis): no
Efficacy of various antibiotic agents (Bacteroides fragilis): yes
Efficacy of various antibiotic agents [5]: yes
Efficacy of various antibiotic agents (Streptococcus agalactiae): yes
Efficacy of various antibiotic agents [6]: yes
Efficacy of various antibiotic agents (Shigella sonnei): yes
Efficacy of various antibiotic agents (Proteus vulgaris): yes
Efficacy of various antibiotic agents (Proteus mirabilis): yes
Efficacy of various antibiotic agents (Enterococcus faecium): no
Efficacy of various antibiotic agents (Campylobacter jejuni): no
Efficacy of various antibiotic agents (Streptococcus pyogenes): yes
Efficacy of various antibiotic agents (Legionella pneumophila): no
Efficacy of various antibiotic agents (Enterobacter aerogenes): yes
Efficacy of various antibiotic agents (Providencia stuartii): yes
Efficacy of various antibiotic agents (Shigella boydii): yes
Efficacy of various antibiotic agents [7]: no
Efficacy of various antibiotic agents [8]: yes
